Data on 8 molecules can be found in ChEMBL document CHEMBL2380312, “Discovery of the first histone deacetylase 6/8 dual inhibitors” (J Med Chem, 2013).

Experiment [1] addresses T1, Protein deacetylase HDAC6 (Homo sapiens, UniProt Q9UBN7).
T1 sequence (Q9UBN7 whole entry): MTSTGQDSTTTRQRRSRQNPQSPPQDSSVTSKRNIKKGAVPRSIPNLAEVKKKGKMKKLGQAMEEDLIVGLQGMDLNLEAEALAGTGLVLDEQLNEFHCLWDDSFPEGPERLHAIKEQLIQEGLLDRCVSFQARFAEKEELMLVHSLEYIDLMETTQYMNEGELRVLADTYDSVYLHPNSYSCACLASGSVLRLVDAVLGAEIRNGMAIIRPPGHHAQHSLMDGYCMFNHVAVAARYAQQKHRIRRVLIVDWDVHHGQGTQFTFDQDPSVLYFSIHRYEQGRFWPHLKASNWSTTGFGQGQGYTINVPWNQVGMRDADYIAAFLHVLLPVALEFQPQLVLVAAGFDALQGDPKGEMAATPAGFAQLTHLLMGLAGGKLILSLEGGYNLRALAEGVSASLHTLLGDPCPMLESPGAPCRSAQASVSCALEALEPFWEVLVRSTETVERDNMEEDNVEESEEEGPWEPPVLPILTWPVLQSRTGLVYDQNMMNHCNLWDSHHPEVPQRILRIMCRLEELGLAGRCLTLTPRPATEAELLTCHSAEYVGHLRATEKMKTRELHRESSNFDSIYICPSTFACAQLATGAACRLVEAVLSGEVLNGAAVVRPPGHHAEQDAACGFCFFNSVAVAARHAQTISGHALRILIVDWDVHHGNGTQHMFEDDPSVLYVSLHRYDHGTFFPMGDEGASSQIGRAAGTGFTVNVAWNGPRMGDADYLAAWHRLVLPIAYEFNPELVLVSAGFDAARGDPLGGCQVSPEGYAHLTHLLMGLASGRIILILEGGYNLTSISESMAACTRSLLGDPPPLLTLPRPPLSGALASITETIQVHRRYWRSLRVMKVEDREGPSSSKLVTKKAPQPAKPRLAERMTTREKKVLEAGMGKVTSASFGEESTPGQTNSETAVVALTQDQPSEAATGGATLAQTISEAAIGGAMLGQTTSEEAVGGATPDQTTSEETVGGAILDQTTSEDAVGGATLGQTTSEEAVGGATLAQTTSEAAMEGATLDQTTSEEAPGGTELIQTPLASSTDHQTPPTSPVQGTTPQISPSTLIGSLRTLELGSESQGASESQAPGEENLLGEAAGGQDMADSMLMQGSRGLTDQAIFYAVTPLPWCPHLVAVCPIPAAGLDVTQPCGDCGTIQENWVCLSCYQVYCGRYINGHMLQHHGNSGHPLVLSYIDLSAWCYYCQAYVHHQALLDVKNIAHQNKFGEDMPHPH
The experiment is described as follows: Inhibition of HDAC6 (unknown origin) after 60 mins by fluorescence assay.

For another experiment, the target named is T2, Histone deacetylase 8 (Homo sapiens, UniProt Q9BY41).
T2 sequence (Q9BY41 whole entry): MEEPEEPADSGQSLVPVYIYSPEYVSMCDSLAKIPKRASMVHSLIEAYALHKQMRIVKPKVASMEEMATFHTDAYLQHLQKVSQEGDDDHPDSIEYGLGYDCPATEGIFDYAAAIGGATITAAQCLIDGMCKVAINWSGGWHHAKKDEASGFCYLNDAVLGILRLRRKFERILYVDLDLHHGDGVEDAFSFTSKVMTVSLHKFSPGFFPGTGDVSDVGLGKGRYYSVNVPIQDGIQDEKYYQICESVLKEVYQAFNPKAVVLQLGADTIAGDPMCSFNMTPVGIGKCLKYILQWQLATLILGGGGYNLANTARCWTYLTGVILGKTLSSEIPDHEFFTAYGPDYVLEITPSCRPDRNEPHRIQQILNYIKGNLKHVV
The experiment in a line: Inhibition of HDAC8 (unknown origin) after 60 mins by fluorescence assay.

In experiment [2] the target is T3, Histone deacetylase 2 (Homo sapiens, UniProt Q92769). The experiment is described as follows: Inhibition of HDAC2 (unknown origin) after 60 mins by fluorescence assay.
T3 sequence (Q92769 whole entry): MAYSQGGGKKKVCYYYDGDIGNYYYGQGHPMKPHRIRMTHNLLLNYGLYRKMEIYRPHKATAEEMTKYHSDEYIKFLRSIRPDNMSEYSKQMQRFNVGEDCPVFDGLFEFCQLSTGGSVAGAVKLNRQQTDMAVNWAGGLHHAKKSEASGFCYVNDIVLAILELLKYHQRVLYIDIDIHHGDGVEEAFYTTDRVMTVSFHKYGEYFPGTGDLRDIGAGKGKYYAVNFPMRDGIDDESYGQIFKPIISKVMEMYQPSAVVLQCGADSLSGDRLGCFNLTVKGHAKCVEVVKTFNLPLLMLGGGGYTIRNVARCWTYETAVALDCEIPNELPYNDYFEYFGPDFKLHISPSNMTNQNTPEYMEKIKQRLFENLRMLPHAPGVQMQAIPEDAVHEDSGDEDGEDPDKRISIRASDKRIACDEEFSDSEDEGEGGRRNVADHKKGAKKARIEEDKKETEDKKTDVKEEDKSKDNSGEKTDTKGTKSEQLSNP
The target in the next experiment is Histone deacetylase 4 (Homo sapiens, UniProt P56524). The experiment in a line: Inhibition of HDAC4 (unknown origin) after 60 mins by fluorescence assay.
Chain of Histone deacetylase 4 (P56524 whole entry): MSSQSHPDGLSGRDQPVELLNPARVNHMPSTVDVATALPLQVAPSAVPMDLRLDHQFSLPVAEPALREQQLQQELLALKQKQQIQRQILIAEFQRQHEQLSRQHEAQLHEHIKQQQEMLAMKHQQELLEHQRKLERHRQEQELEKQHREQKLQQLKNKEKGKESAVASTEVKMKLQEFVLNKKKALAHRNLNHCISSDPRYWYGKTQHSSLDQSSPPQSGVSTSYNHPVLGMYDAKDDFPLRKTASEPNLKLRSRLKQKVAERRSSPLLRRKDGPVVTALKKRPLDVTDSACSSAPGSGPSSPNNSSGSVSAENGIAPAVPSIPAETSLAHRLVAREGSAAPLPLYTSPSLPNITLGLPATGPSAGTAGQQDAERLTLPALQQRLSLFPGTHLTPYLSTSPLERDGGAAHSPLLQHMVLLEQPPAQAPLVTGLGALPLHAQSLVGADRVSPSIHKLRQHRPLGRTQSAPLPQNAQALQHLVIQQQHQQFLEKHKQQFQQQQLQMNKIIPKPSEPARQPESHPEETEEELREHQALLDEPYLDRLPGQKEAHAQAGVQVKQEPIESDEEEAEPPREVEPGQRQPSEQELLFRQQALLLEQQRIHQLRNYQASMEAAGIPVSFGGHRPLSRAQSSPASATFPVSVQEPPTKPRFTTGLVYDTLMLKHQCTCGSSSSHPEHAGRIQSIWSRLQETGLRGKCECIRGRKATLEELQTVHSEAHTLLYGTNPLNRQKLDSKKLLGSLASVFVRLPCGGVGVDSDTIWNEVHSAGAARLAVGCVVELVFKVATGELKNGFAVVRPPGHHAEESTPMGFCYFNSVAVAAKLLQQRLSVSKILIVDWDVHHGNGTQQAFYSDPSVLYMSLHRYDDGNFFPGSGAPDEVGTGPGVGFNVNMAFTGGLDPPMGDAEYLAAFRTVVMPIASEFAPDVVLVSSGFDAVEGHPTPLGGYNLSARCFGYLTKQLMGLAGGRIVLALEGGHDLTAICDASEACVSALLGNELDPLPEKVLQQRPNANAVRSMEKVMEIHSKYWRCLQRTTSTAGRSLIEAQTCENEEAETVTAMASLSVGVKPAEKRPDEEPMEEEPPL
A further experiment has as its target Histone deacetylase 3 (Homo sapiens, UniProt O15379). The experiment in a line: Inhibition of HDAC3 (unknown origin) after 60 mins by fluorescence assay.
For a further experiment, the target named is Histone deacetylase 5 (Homo sapiens, UniProt Q9UQL6). The experiment is described as follows: Inhibition of HDAC5 (unknown origin) after 60 mins by fluorescence assay.
Chain of Histone deacetylase 5 (Q9UQL6 whole entry): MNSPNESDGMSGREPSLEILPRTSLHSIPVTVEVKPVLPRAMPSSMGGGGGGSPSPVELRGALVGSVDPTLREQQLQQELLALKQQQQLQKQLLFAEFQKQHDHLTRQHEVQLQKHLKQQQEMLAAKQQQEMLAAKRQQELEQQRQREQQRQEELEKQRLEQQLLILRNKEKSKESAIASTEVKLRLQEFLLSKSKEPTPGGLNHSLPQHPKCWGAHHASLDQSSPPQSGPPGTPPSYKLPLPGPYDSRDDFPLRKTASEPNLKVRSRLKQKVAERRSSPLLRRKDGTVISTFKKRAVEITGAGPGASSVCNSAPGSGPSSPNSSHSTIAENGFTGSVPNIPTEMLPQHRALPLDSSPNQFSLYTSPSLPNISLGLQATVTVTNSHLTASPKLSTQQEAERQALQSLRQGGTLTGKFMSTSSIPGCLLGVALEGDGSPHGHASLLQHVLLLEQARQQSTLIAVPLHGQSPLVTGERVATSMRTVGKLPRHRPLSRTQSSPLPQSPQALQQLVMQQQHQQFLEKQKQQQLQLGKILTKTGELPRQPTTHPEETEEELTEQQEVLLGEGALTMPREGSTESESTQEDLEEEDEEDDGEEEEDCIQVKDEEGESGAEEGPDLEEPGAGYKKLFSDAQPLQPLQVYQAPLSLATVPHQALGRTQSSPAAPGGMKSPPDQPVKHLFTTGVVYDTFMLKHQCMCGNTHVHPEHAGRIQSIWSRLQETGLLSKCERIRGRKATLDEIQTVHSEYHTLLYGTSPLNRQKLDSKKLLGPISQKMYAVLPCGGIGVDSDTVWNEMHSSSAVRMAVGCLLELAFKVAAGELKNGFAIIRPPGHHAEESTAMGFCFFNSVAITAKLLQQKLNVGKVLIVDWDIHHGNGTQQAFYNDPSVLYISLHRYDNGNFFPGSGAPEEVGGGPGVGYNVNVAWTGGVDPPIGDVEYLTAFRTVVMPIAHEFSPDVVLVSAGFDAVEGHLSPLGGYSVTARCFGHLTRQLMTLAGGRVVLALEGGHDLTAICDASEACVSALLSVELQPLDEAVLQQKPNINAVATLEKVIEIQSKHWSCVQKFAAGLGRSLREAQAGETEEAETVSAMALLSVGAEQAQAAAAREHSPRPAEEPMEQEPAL
The target in the next experiment is Histone deacetylase 9 (Homo sapiens, UniProt Q9UKV0). The experiment in a line: Inhibition of HDAC9 (unknown origin) after 60 mins by fluorescence assay.
Chain of Histone deacetylase 9 (Q9UKV0 whole entry): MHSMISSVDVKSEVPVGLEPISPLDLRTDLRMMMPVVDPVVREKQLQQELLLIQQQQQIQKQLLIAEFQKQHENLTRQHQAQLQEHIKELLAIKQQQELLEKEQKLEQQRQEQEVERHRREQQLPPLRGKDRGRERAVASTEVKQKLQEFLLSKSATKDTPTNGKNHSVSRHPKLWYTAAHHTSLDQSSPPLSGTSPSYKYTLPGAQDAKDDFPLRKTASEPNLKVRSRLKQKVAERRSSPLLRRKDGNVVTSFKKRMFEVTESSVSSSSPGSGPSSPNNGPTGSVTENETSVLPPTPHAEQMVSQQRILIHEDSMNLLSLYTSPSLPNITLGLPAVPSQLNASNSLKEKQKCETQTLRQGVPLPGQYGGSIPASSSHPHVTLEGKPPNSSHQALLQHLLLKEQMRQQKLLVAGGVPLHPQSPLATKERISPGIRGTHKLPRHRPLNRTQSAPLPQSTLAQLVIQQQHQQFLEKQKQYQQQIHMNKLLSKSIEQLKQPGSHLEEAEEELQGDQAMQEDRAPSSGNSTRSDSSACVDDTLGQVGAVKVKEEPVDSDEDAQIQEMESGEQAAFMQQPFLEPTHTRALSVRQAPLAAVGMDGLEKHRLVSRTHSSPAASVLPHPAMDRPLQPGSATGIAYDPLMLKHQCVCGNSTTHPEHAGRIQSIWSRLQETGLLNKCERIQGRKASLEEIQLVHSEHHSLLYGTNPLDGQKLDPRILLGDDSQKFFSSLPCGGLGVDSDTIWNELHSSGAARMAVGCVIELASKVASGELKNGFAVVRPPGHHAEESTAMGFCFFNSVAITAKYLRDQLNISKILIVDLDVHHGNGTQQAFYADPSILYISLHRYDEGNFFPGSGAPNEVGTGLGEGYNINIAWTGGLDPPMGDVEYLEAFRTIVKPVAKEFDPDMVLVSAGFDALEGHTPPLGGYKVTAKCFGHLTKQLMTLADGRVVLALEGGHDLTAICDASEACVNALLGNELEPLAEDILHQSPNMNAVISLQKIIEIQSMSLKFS
The target in experiment [3] is T3, Histone deacetylase 2. To be noted: HeLa, at 10 µM.
Description: Inhibition of HDAC2 in human HeLa cells assessed as increase in histone H3 acetylation at 10 uM after 48 hrs by Western blotting analysis
A further experiment addresses Histone deacetylase 1 (Homo sapiens, UniProt Q13547). The experiment in a line: Inhibition of HDAC1 (unknown origin) after 60 mins by fluorescence assay.
Experiment [4] is filed under the species Homo sapiens. The experiment is described as follows: Selectivity ratio of IC50 for HDAC4 (unknown origin) to IC50 for HDAC6 (unknown origin).
The species entered for experiment [5] is Homo sapiens. The experiment is described as follows: Selectivity ratio of IC50 for HDAC2 (unknown origin) to IC50 for HDAC8 (unknown origin).
Experiment [6] is filed under the species Homo sapiens. The experiment in a line: Selectivity ratio of IC50 for HDAC2 (unknown origin) to IC50 for HDAC6 (unknown origin).
For experiment [7], the species on record is Homo sapiens. The experiment is described as follows: Selectivity ratio of IC50 for HDAC4 (unknown origin) to IC50 for HDAC8 (unknown origin).
A further experiment deals with T4, Histone deacetylase 7 (Homo sapiens, UniProt Q8WUI4).
T4 sequence (Q8WUI4 whole entry): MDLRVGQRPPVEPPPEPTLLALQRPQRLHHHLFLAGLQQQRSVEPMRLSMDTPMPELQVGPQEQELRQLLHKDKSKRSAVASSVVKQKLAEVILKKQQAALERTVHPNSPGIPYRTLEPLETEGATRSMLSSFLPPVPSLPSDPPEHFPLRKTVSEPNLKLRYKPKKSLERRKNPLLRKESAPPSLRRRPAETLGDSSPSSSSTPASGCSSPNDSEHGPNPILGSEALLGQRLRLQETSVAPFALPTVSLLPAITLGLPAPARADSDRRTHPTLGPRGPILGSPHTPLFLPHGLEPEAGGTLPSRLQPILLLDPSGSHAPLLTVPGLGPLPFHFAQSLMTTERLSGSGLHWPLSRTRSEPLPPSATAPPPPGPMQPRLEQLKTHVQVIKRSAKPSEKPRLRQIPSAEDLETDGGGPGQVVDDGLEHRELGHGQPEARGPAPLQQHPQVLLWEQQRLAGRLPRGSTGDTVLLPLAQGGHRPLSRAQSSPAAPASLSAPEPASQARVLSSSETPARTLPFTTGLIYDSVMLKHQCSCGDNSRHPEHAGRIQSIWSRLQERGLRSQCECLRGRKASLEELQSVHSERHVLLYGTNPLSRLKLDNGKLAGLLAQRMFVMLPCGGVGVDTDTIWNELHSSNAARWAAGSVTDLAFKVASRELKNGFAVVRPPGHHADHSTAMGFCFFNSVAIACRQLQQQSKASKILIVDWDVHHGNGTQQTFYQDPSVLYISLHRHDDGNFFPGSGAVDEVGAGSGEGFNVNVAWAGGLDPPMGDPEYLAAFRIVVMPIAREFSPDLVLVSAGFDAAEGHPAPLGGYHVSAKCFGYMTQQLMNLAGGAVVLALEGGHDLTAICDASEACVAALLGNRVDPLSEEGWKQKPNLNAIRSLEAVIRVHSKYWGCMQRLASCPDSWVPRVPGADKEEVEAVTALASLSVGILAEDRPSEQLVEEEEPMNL
The experiment in a line: Inhibition of HDAC7 (unknown origin) after 60 mins by fluorescence assay.

Active and inactive are the calls of the source. The rule behind the calls is not given here.

Chain of Histone deacetylase 3 (O15379 whole entry): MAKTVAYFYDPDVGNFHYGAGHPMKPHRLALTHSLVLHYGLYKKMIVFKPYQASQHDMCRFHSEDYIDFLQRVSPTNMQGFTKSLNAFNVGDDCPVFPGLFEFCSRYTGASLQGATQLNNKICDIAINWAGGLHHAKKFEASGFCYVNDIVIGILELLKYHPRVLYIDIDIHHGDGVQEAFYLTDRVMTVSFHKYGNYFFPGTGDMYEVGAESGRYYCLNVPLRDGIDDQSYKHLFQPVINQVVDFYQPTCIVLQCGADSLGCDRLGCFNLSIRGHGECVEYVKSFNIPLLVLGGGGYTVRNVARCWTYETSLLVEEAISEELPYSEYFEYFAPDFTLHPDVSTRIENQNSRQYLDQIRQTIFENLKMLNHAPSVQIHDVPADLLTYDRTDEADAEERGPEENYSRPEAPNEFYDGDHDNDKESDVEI
Chain of Histone deacetylase 1 (Q13547 whole entry): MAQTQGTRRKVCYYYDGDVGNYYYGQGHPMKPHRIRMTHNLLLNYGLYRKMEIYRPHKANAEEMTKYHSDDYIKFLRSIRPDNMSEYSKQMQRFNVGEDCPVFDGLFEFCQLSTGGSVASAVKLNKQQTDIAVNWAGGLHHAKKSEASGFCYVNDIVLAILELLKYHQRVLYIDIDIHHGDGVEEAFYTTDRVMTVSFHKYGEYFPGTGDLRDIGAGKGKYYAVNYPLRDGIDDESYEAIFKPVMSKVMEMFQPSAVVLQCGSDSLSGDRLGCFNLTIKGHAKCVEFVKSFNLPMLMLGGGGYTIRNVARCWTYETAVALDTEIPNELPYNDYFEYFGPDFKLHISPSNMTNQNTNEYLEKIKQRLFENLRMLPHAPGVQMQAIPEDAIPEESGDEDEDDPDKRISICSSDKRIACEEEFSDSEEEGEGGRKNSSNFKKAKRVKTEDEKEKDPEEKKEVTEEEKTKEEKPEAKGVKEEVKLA

One may read the IC50 as the concentration that inhibits the measured activity by half. Higher therefore signals lower potency. Take `Cc1cccc(C(=O)NO)c1`: the half-inhibitory concentration (IC50) in experiment [1] was 0.65 µM; against Histone deacetylase 8 it was 3.3 µM; on Histone deacetylase 2 [2], > 33 µM; against Histone deacetylase 4, > 33 µM.

Regarding `O=C(NO)c1cccc(C(=O)NCCc2ccccc2)c1`, the IC50 on Histone deacetylase 3 was 23 µM; at Histone deacetylase 5, > 33 µM; on Histone deacetylase 9 it was > 33 µM; on Histone deacetylase 2 [2], 9 µM; against Histone deacetylase 1, 12 µM. Besides, the inhibition entry on Histone deacetylase 2 [3] is “Active”.

With `O=C(NO)c1cccc(C(=O)Nc2ccccc2)c1`, on Histone deacetylase 4, the IC50 was > 33 µM.

Consider `O=C(NO)c1cccc(C(=O)NCc2ccccc2)c1`, for which the half-inhibitory concentration (IC50) was 0.034 µM in experiment [1], 0.21 µM at Histone deacetylase 8, 11 µM against Histone deacetylase 2 [2] and > 33 µM against Histone deacetylase 4. The Ratio IC50 in the experiment listed under Homo sapiens [4], in the experiment filed under Homo sapiens [5], in the experiment filed under Homo sapiens [6] and in the experiment filed under Homo sapiens [7] was > 50 each time.

In the case of `CNC(=O)c1cccc(C(=O)NO)c1`, the IC50 in [1] is 2.5 µM; on Histone deacetylase 8, 14 µM; against Histone deacetylase 2 [2], > 33 µM; on Histone deacetylase 4, > 33 µM.

Regarding `O=C(NO)c1cccc(CNc2ccccc2)c1`, the half-maximal inhibitory concentration (IC50) in experiment [1] was 1.3 µM; against Histone deacetylase 8, 1.7 µM; against Histone deacetylase 2 [2], > 33 µM; at Histone deacetylase 4, > 33 µM.

In the case of `O=C(/C=C/c1cccc(C(=O)NO)c1)Nc1ccccc1`, the half-inhibitory concentration (IC50) was 18 µM on Histone deacetylase 3; 26 µM against Histone deacetylase 5; 0.021 µM in [1]; 0.037 µM against Histone deacetylase 8; 12 µM at Histone deacetylase 9; 4.8 µM at Histone deacetylase 2 [2]. The IC50 was found to be 8.4 µM against Histone deacetylase 7, 6.1 µM on Histone deacetylase 1 and 14 µM on Histone deacetylase 4. For the same molecule, the Ratio IC50 in the experiment filed under Homo sapiens [4], in the experiment filed under Homo sapiens [5], in the experiment listed under Homo sapiens [6] and in the experiment listed under Homo sapiens [7] was > 130 in each case. The inhibition result on Histone deacetylase 2 [3] is “Active”.

For `O=C(NO)c1cccc(C(=O)NCCc2cccnc2)c1`, the IC50 in experiment [1] was 0.059 µM; against Histone deacetylase 8, 0.42 µM; against Histone deacetylase 2 [2], 20 µM; at Histone deacetylase 4 it was > 33 µM.
